According to the supplement of paper PMC10702517:
± gives the standard deviation.

Columns and labels:
[1] = chemical recovery into PDMS from spiked human plasma; higher = better extraction; details: pooled human plasma, extraction method: PES with PDMS
[2] = chemical recovery by SPE of plasma after PDMS sampling; higher = better extraction; details: pooled human plasma, extraction method: HLB SPE of plasma after PES
[3] = chemical recovery from spiked human plasma; higher = better extraction; details: pooled human plasma
[4] = extraction method: SPE only (HLB 96-well)
[5] = extraction method: SPE only (HLB 96-well), PES comparison experiment
[6] = extraction method: solvent precipitation (ACN + hexane)
[7] = extraction method: PES+SPE (3 d PDMS equilibration then HLB SPE)
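Wherever chemical recovery by SPE of plasma after PDMS sampling is given: over 400 spiked chemicals quantified by LC-HRMS or GC-HRMS via internal standard calibration, recovery relative to spike mix added to unspiked plasma extract to correct matrix effects.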

Structure (SMILES)	chemical recovery into PDMS ([1]; equilibration time (d): 1)	chemical recovery into PDMS ([1]; equilibration time (d): 3)	chemical recovery into PDMS ([1]; equilibration time (d): 6)	chemical recovery by SPE of plasma ([2]; equilibration time (d): 1)	chemical recovery by SPE of plasma ([2]; equilibration time (d): 3)	chemical recovery by SPE of plasma ([2]; equilibration time (d): 6)	chemical recovery [3, 4]	chemical recovery [3, 5]	chemical recovery [3, 6]	chemical recovery [3, 7]
CC(C)N(C(=O)CCl)c1ccccc1 [Propachlor]	31.9 ± 1.8%	34.7 ± 3.9%	35.3 ± 2.5%	1.58 ± 0.41%	2.49 ± 0.44%	1.58 ± 0.092%	28.6 ± 2.1%	41.4 ± 7.8%	45.1 ± 10%	–
CCCC1COC(Cn2cncn2)(c2ccc(Cl)cc2Cl)O1 (centres undefined) [Propiconazole]	38.2 ± 2.5%	41 ± 3.7%	40.7 ± 1.6%	0.277 ± 0.24%	0.384 ± 0.17%	0.117 ± 0.052%	–	43.1 ± 6.8%	70.3 ± 3.4%	–
CC(C)NCC(O)COc1cccc2ccccc12 (centres undefined) [Propranolol]	0.322 ± 0.19%	0.522 ± 0.36%	0.438 ± 0.19%	8.66 ± 0.64%	9.06 ± 1.1%	7.31 ± 0.57%	45.4 ± 2.9%	50 ± 7%	71.9 ± 3.2%	7.98 ± 1.1%
CCCOC(=O)c1ccc(O)cc1 [Propylparaben]	11.6 ± 0.24%	13.2 ± 1.9%	14.8 ± 2%	40.3 ± 8.2%	43 ± 3.8%	34 ± 0.68%	43.1 ± 2.1%	67.9 ± 7.4%	70.6 ± 3.7%	56.4 ± 4.7%
Cc1c(C(C)C)c(=O)n(-c2ccccc2)n1C [Propyphenazone]	17.3 ± 1.9%	22 ± 0.25%	23 ± 2.1%	4.36 ± 0.18%	3.89 ± 0.79%	2.01 ± 0.19%	44.6 ± 2.6%	47.3 ± 6.5%	69.31 ± 0.67%	48.4 ± 9.9%
C#CC(C)(C)NC(=O)c1cc(Cl)cc(Cl)c1 [Propyzamide]	34.8 ± 1.4%	38.5 ± 1.1%	39.4 ± 0.71%	5.12 ± 0.61%	7.16 ± 0.99%	4.71 ± 0.68%	65 ± 3.2%	48.1 ± 8.4%	64.8 ± 3.9%	64.9 ± 12%
OC(Cc1ccccc1Cl)(Cn1cncn1)C1(Cl)CC1 (centres undefined) [Prothioconazole-desthio]	36.2 ± 2.6%	38.6 ± 2%	38.5 ± 1.7%	0.693 ± 0.059%	0.829 ± 0.22%	0.428 ± 0.025%	–	47 ± 6.8%	89.2 ± 4%	–
c1cc2ccc3cccc4ccc(c1)c2c34 [Pyrene]	–	79.6 ± 17%	77.8 ± 20%	4.17 ± 2.2%	5.06 ± 1.2%	3.59 ± 0.37%	19.5 ± 5.1%	19.4 ± 2.8%	–	–
c1ccc2ncccc2c1 [Quinoline]	8.77 ± 5.3%	9.55 ± 7.5%	4.43 ± 4.2%	0.053 ± 0.092%	0.00565 ± 0.0098%	0.0105 ± 0.018%	16.5 ± 4.6%	–	–	–
Fc1ccc(Oc2ccnc3cc(Cl)cc(Cl)c23)cc1 [Quinoxyfen]	48 ± 4.7%	50.5 ± 5.9%	48.7 ± 2%	–	0.232 ± 0.06%	–	57.2 ± 16%	31.6 ± 5.7%	96.2 ± 9.7%	–
Cc1nc2n(c(=O)c1CCN1CCC(c3noc4cc(F)ccc34)CC1)CCCC2 [Risperidone]	0.00139 ± 0.0024%	0.000765 ± 0.0018%	–	4.71 ± 0.66%	3.9 ± 0.9%	2.32 ± 0.59%	–	–	73.2 ± 3.6%	–
CN[C@H]1CC[C@@H](c2ccc(Cl)c(Cl)c2)c2ccccc21 [Sertraline]	0.493 ± 0.065%	0.434 ± 0.081%	0.535 ± 0.27%	0.296 ± 0.11%	0.321 ± 0.11%	0.0944 ± 0.088%	71.9 ± 9.3%	40.5 ± 8.4%	72.8 ± 3.8%	1.09 ± 0.4%
CCNc1nc(Cl)nc(NCC)n1 [Simazine]	30.5 ± 1.1%	35.8 ± 1.3%	38.6 ± 2.5%	9.65 ± 1.2%	7.56 ± 1.3%	4.81 ± 0.55%	43.4 ± 2.3%	48.6 ± 5.5%	60.6 ± 5.9%	47.8 ± 5.9%
CCNc1nc(NCC)nc(SC)n1 [Simetryn]	21.2 ± 8.1%	25.4 ± 8.6%	28.9 ± 5.6%	12.9 ± 2.2%	5.73 ± 0.83%	3.34 ± 0.47%	41.6 ± 3.2%	46.7 ± 4.3%	70.9 ± 3.6%	–
CC[C@H]1CCC[C@H](O[C@H]2CC[C@H](N(C)C)[C@@H](C)O2)[C@@H](C)C(=O)C2=C[C@@H]3[C@@H](C=C[C@@H]4C[C@@H](O[C@@H]5O[C@@H](C)[C@H](OC)[C@@H](OC)[C@H]5OC)C[C@@H]34)[C@@H]2CC(=O)O1 [Spinosyn A]	0.00824 ± 0.014%	0.0193 ± 0.034%	0.00695 ± 0.012%	0.0715 ± 0.12%	0.155 ± 0.14%	0.0384 ± 0.0082%	–	39.5 ± 10%	71.7 ± 10%	–
CS(=O)(=O)c1ccc(C(=O)C2C(=O)CCCC2=O)c(Cl)c1 [Sulcotrione]	–	–	0.00153 ± 0.0027%	53.9 ± 7%	59.9 ± 2.5%	54.5 ± 2%	47.6 ± 3.3%	51.3 ± 2.9%	72.8 ± 3.6%	57 ± 5.9%
O=P(OC(CCl)CCl)(OC(CCl)CCl)OC(CCl)CCl [TDCPP]	35.2 ± 3%	37.4 ± 4.4%	35.8 ± 3%	4.16 ± 3.7%	4.02 ± 4.5%	2.14 ± 3.7%	46.5 ± 0.97%	50.5 ± 5.6%	–	–
CC(C)CC(C)(O)C#CC(C)(O)CC(C)C (centres undefined) [TMDD]	47.1 ± 4.9%	–	60.2 ± 18%	–	–	38.6 ± 6%	47.5 ± 6%	–	77.6 ± 7%	–
CCCc1nc2c(C)cc(-c3nc4ccccc4n3C)cc2n1Cc1ccc(-c2ccccc2C(=O)O)cc1 [Telmisartan]	0.144 ± 0.041%	0.817 ± 0.34%	1.28 ± 0.6%	43.6 ± 3.4%	46.2 ± 1%	43.5 ± 2.1%	50.8 ± 2.5%	45.4 ± 5.1%	–	55.8 ± 1.8%
CN1C(=O)C(O)N=C(c2ccccc2)c2cc(Cl)ccc21 (centres undefined) [Temazepam]	11.2 ± 0.91%	16.5 ± 0.71%	17.6 ± 1.9%	30.4 ± 4.8%	27.9 ± 3.1%	22 ± 2.1%	46.8 ± 2.9%	44.5 ± 6.3%	77.8 ± 3.1%	62.9 ± 6.2%
CC/C(=N\OC/C=C/Cl)C1=C(O)CC(C2CCOCC2)CC1=O (centres undefined) [Tepraloxydim]	0.0964 ± 0.084%	0.473 ± 0.3%	0.369 ± 0.063%	47.5 ± 6.9%	48.3 ± 2.9%	41.9 ± 3.2%	40.5 ± 2.5%	51.8 ± 3%	73.8 ± 3.1%	45.7 ± 5%
CN(C/C=C/C#CC(C)(C)C)Cc1cccc2ccccc12 [Terbinafine]	0.00204 ± 0.0035%	0.065 ± 0.1%	0.00509 ± 0.0088%	0.265 ± 0.18%	0.2 ± 0.089%	0.0441 ± 0.0079%	46.4 ± 1%	50 ± 10%	86.4 ± 13%	–
CCNc1nc(Cl)nc(NC(C)(C)C)n1 [Terbuthylazine]	37 ± 1%	41.3 ± 3.5%	41.4 ± 1.7%	1.41 ± 0.15%	1.28 ± 0.32%	0.724 ± 0.021%	61.8 ± 2.3%	45.8 ± 8%	69.5 ± 7.1%	64.8 ± 10%
CCNc1nc(NC(C)(C)C)nc(SC)n1 [Terbutryn]	21.7 ± 8.2%	21.5 ± 6.8%	22.9 ± 3.2%	1.3 ± 0.11%	1.01 ± 0.25%	0.516 ± 0.03%	46.2 ± 2.5%	48.2 ± 6.7%	68.8 ± 3.2%	–
C[C@]12CC[C@H]3[C@@H](CCC4=CC(=O)CC[C@@]43C)[C@@H]1CC[C@@H]2O [Testosterone]	29.7 ± 1.9%	35.7 ± 2.2%	35.6 ± 0.61%	16 ± 3.3%	14.5 ± 1.6%	8.83 ± 2.7%	–	52.8 ± 8.8%	–	–
